Reference: patent publication US7094909B2, “HIV protease inhibitors, compositions containing the same, their pharmaceutical uses and materials for their synthesis” (priority 2001, dated 2006)
Read-outs that look alike come from different tables or passages of the source.

What was measured:
[1] = biological target: T1, HIV-1 protease (Q7S mutant form) (Human immunodeficiency virus type 1 group M subtype B, UniProt P04585, Q495S); assay: HIV-1 Protease RET assay; type: biochemical; conditions: Ave. Ki (nM), RET assay, Q7S enzyme, Morrison tight binding fit
T1 construct: made in house
Method in brief: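 Ki values fitted with the Morrison tight-binding equation from steady-state RET cleavage (ex 340, em 490 nm) of 5 μM RE(EDANS)SQNYPIVQK(DABCYL)R. Buffer pH 4.8 acetate, 1M NaCl, 5 mM DTT, 1 mg/ml BSA, 10% DMSO; 2 nM Q7S mutant dimer, 37 °C, 12 min.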

[2] = system: HIV-1 (HIV-1 RF, HIV-1 NL4-3) in CEM-SS / MT-2 cells; assay: Cytopathic effect (CPE) inhibition assay (XTT/MTT dye reduction); type: cell-based
Method in brief: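 Readout is XTT reduction (A450, 4 h) after six days of culturing virus-infected (moi 0.025–0.819) or mock-infected CEM-SS/MT-2 cells, 2×10^4 per well, with half-log compound series. Antiviral EC50 and cytotoxic CC50 are relative to uninfected compound-free cells. Therapeutic index is CC50 divided by EC50.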

461, 84V, 90M virus = assay: Phenotypic susceptibility assay at Virologic, Inc.; type: cell-based, HIV-1; conditions: Human immunodeficiency virus 1, read-out: EC50 or IC50 (mM), values with asterisk (IC50)
Method: Compounds were tested in phenotypic susceptibility assays at Virologic, Inc., (See Petropoulos C. J., Parkin N. T., Limoli K. L., Lie Y. S., Wrin T., Huang W., Tian H., Smith D., Winslow G. A., Capon D J, Whitcomb J M. 2000, “A novel phenotypic drug susceptibility assay for human immunodeficiency virus type 1,” Antimicrob Agents Chemother 44(4):920–928) or using the assay described here. MT-2 cells were infected with either HIV-1 NL4-3 or HIV-1 NL4-3([…]) and incubated in the presence of serial 0.5 log dilutions of test compounds. Three days later, culture supernatants were collected and virus production, as determined by p24 ELISA, was assayed. Percent inhibition was calculated as p24 concentration in compound-treated samples as compared to infected, compound-free controls. Inhibition of viral replication is determined by measuring reduction in HIV p24 present in the culture supernatant, using a Beckman-Coulter p24HIV-1 Ag EIA kit and following the supplied protocol. Absorbance is read on a MRX microplate reader (Dynex Technologies). The EC50 was calculated as the concentration of compound that effected a decrease in the p24 production by infected, compound-treated cells to 50% of that produced by infected, compound-free cells.

[3] = system: HIV-1 NL4-3 or HIV-1 NL4-3(I84V/L90M); assay: Susceptibility assay, p24 ELISA in infected MT-2 cells; type: cell-based; conditions: Human immunodeficiency virus 1, NL43, MT2, read-out: EC50 or IC50 (mM), values without asterisk (EC50)
Method in brief: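 MT-2 cells infected with HIV-1 NL4-3 or the I84V/L90M mutant were incubated with 0.5 log serial compound dilutions for three days. Supernatant p24 was quantified by ELISA. EC50 is the concentration reducing p24 to 50% of infected, compound-free controls.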

[4] = Human immunodeficiency virus 1, NL43, read-out: Ave CPE EC50
[5] = Human immunodeficiency virus 1, NL43, read-out: Ave CPE EC50 (mM)

Row | Compound | Ki [1] | EC50 [2, 4] | IC50 (461, 84V, 90M virus) | EC50 [2, 5] | EC50 [3]
1 | Cc1cnccc1CNC(=O)[C@H]1N(C(=O)[C@@H](O)[C@H](Cc2ccccc2)NC(=O)c2cccc(O)c2C)CSC1(C)C [Example A10, 3-[2-Hydroxy-3-(3-hydroxy-2-methyl-benzoylamino)-4-phenyl-butyryl]-5,5-dimethyl-thiazolidine-4-carboxylic acid (3-methyl-pyridin4-ylmethyl)-amide] | < 0.1 nM | 104 nM | 118 nM | – | –
2 | Cc1c(O)cccc1C(=O)N[C@@H](Cc1ccccc1)[C@H](O)C(=O)N1CSC(C)(C)[C@H]1C(=O)NCC1CCCCC1 [Example A13, 3-[2-Hydroxy-3-(3-hydroxy-2-methyl-benzoylamino)-4-phenyl-butyryl]-5,5-dimethyl-thiiazolidine-4-carboxylic acid cyclohexylmethyl-amide] | 3.4 nM | 495 nM | 921 nM | – | –
3 | Cc1c(O)cccc1C(=O)N[C@@H](Cc1ccccc1)[C@H](O)C(=O)N1CSC(C)(C)[C@H]1C(=O)NCc1ccc2c(c1)OCO2 [Example A14, 3-((2S,3S)-2-Hydroxy-3-{[1-(3-hydroxy-2-methyl-phenyl)-methanoyl]-amino}-4-phenyl-butanoyl)-5,5-dimethyl-thiazolidine-4-carboxylic acid (benzo[1,3]dioxol-5-ylmethyl)-amide] | 0.32 nM | – | 226 nM | 61 nM | –
4 | Cc1c(O)cccc1C(=O)N[C@@H](Cc1ccccc1)[C@H](O)C(=O)N1CSC(C)(C)[C@H]1C(=O)NCc1ccco1 [Example A15, (R)-3-((2S,3S)-2-Hydroxy-3-{[1-(3-hydroxy-2-methyl-phenyl)-methanoyl]-amino}-4-phenyl-butanoyl)-5,5-dimethyl-thiazolidine-4-carboxylic acid (furan-2-ylmethyl)-amide] | < 0.1 nM | 55 nM | 57 nM | – | –
5 | Cc1c(O)cccc1C(=O)N[C@@H](Cc1ccccc1)[C@H](O)C(=O)N1CSC(C)(C)[C@H]1C(=O)NCC1CC1 [Example A20, (R)-3-((2S,3S)-2-Hydroxy-3-{[1-(3-hydroxy-2-methyl-phenyl)-methanoyl]-amino}-4-phenyl-butanoyl)-5,5-dimethyl-thiazolidine-4-carboxylic acid cyclopropylmethyl-amide] | 0.16 nM | 35 nM | 219 nM | – | –
6 | Cc1c(O)cccc1C(=O)N[C@@H](Cc1ccccc1)[C@H](O)C(=O)N1CSC(C)(C)[C@H]1C(=O)NC1CCCCC1 [Example A21, (R)-3-((2S,3S)-2-Hydroxy-3-{[1-(3-hydroxy-2-methyl-phenyl)-methanoyl]-amino)-4-phenyl-butanoyl)-5,5-dimethyl-thiazolidine-4-carboxylic acid cyclohexylamide] | < 0.1 nM | 49 nM | 655 nM | – | –
7 | Cc1c(O)cccc1C(=O)N[C@@H](Cc1ccccc1)[C@H](O)C(=O)N1CSC(C)(C)[C@H]1C(=O)NCc1cccs1 [Example A23, (R)-3-((2S,3S)-2-Hydroxy-3-{[1-(3-hydroxy-2-methyl-phenyl)-methanoyl]-amino}-4-phenyl-butanoyl)-5,5-dimethyl-thiazolidine-4-carboxylic acid (thiophen-2-ylmethyl)-amide] | 2.6 nM | 17 nM | 48 nM | – | –
8 | Cc1ccccc1CNC(=O)[C@H]1N(C(=O)[C@@H](O)[C@H](Cc2ccccc2)NC(=O)c2cccc(O)c2C)CSC12CCCC2 [Example C30, 3-(2-Hydroxy-3-{[1-(3-hydroxy-2-methyl-phenyl)-methanoyl]-amino}-4-phenyl-butanoyl)-1-thia-3-aza-spiro [4.4]nonane-4-carboxylic acid 2-methyl-benzamide] | < 0.1 nM | 18 nM | – | – | 0.000273 mM
9 | Cc1ccccc1CNC(=O)[C@H]1N(C(=O)[C@@H](O)[C@H](Cc2ccccc2)NC(=O)c2cccc(O)c2C)CSC12CCCCC2 [Example C31, 3-(2-Hydroxy-3-{[1-(2-methyl-3-hydroxy-phenyl)-methanoyl]-amino}-4-phenyl-butanoyl)-1-thia-3-aza-spiro[4.5]decane-4-carboxylic acid 2-methyl-benzylamide] | 0.17 nM | 31 nM | – | – | 0.00107 mM
10 | Cc1ccccc1CNC(=O)[C@H]1N(C(=O)[C@@H](O)[C@H](Cc2ccccc2)NC(=O)c2cccc(O)c2C)CSC12CCC2 [Example C32, 7-(2-Hydroxy-3-{[1-(3-hydroxy-2-methyl-phenyl)-methanoyl]-amino}-4-phenyl-butanoyl)-5-thia-7-aza-spiro[3.4]octane-8-carboxylic acid-2-methyl benzylamide] | < 0.1 nM | 9 nM | – | – | 0.00019 mM
11 | CCCNC(=O)[C@H]1N(C(=O)[C@@H](O)[C@H](Cc2ccccc2)NC(=O)c2cccc(O)c2C)CSC12CCCC2 [Example C33, (R)-3-((2S,3S)-2-Hydroxy-3-{[1-(3-hydroxy-2-methyl-phenyl)-methanoyl]-amino}-4-phenyl-butanoyl)-1-thia-3-aza-spiro[4.4]nonane-4-carboxylic acid propylamide] | 0.13 nM | 45 nM | – | – | 0.00127 mM
12 | C/C=C(\C)CNC(=O)[C@H]1N(C(=O)[C@@H](O)[C@H](Cc2ccccc2)NC(=O)c2cccc(O)c2C)CSC12CCCC2 [Example C34, (R)-3-((2S,3S)-2-Hydroxy-3-{[1-(3-hydroxy-2-methyl-phenyl)-methanoyl]-amino}-4-phenyl-butanoyl)-1-thia-3-aza-spiro[4.4]nonane-4-carboxylic acid ((E)-2-methyl-but-2-enyl)-amide] | < 0.1 nM | – | – | 22 nM | 0.000627 mM
13 | Cc1ccc(F)cc1CNC(=O)[C@H]1N(C(=O)[C@@H](O)[C@H](Cc2ccccc2)NC(=O)c2cccc(O)c2C)CSC12CCCC2 [Example C36, (R)-3-((2S,3S)-2-Hydroxy-3-{[1-(3-hydroxy-2-methyl-phenyl)-methanoyl]-amino}-4-phenyl-butanoyl)-1-thia-3-aza-spiro[4.4]nonane-4-carboxylic acid 5-fluoro-2-methyl-benzylamide] | < 0.1 nM | 50 nM | – | – | 0.000666 mM
14 | Cc1c(O)cccc1C(=O)N[C@@H](Cc1ccccc1)[C@H](O)C(=O)N1CSC2(CCCC2)[C@H]1C(=O)N[C@H]1CCCc2ccccc21 [Example C37, (R)-3-((2S,3S)-2-Hydroxy-3-{[1-(3-hydroxy-2-methyl-phenyl)-methanoyl]-amino}-4-phenyl-butanoyl)-1-thia-3-aza-spiro[4.4]nonane-4-carboxylic acid (1,2,3,4-tetrahydro-naphthalen-1-yl)-amide] | 0.61 nM | 27 nM | – | – | 0.00129 mM
15 | CCCNC(=O)[C@H]1N(C(=O)[C@@H](O)[C@H](Cc2ccccc2)NC(=O)c2cccc(O)c2C)CSC12CCC2 [Example C38, (R)-7-((2S,3S)-2-Hydroxy-3-{[1-(3-hydroxy-2-methyl-phenyl)-methanoyl]-amino}-4-phenyl-butanoyl)-5-thia-7-aza-spiro[3.4]octane-8-carboxylic acid propylamide] | < 0.1 nM | 42 nM | – | – | 0.00131 mM
16 | Cc1c(O)cccc1C(=O)N[C@@H](Cc1ccccc1)[C@H](O)C(=O)N1CSC2(CCC2)[C@H]1C(=O)N[C@@H]1C=CCCC1 [Example C39, (R)-7-((2S,3S)-2-Hydroxy-3-{[1-(3-hydroxy-2-methyl-phenyl)-methanoyl]-amino}-4-phenyl-butanoyl)-5-thia-7-aza-spiro[3.4]octane-8-carboxylic acid (S)-cyclohex-2-enylamide] | < 0.1 nM | 13 nM | – | – | 0.000404 mM
17 | C=CCCC(=O)[C@H]1N(C(=O)[C@@H](O)[C@H](Cc2ccccc2)NC(=O)c2cccc(O)c2C)CSC1(C)C [Example D1, N-[(1S,2S)-1-Benzyl-3-((R)-5,5-dimethyl-4-pent-4-enoyl-thiazolidin-3-yl)-2-hydroxy-3-oxo-propyl]-3-hydroxy-2-methyl-benzamide] | < 0.1 nM | – | – | 52 nM | 0.000601 mM
